Earlier results as cited in PMC8674003 (CPT: Pharmacometrics & Systems Pharmacology, 2021).
Positions of bridges follow the written chain, without caps; N, C: chain ends. Non-standard residues stand in square brackets, D forms with d. Residues, ends and D or L forms follow the SMILES beside them. *: point of attachment. X1 = CC[C@H](C)CCCCC(=O)*; Dab = NCC[C@H](N)C(=O)O

Columns and labels:
[1] = components administered individually to Sprague-Dawley rats
[2] = IV
[3] = M4 (Wang et al.), 2 CMT, Phoenix NLME (7.0), 46 patients

| SMILES | Plasma protein binding, B1 compared with B2 [1] | Q, intercompartmental clearance [2, 3] [L/h] | V1, typical volume of central compartment [2, 3] [L] | V2, typical volume of peripheral compartment [2, 3] [L] | V, volume of distribution ([2]; M7 (Yu et al.), 1 CMT, NONMEM (7.4), 32 patients) [L] |
| --- | --- | --- | --- | --- | --- |
| CC[C@H](C)CCCCC(=O)N[C@@H](CCN)C(=O)N[C@H](C(=O)N[C@@H](CCN)C(=O)N[C@H]1CCNC(=O)[C@H]([C@@H](C)O)NC(=O)[C@H](CCN)NC(=O)[C@H](CCN)NC(=O)[C@H](CC(C)C)NC(=O)[C@@H](Cc2ccccc2)NC(=O)[C@H](CCN)NC1=O)[C@@H](C)O [polymyxin B1] (X1-[Dab]T[Dab][Dab][Dab][dF]L[Dab][Dab]T; lactam 4-C) | higher compared with B2 | – | – | – | – |
| CC[C@H](C)CCCCC(=O)N[C@@H](CCN)C(=O)N[C@H](C(=O)N[C@@H](CCN)C(=O)N[C@H]1CCNC(=O)[C@H]([C@@H](C)O)NC(=O)[C@H](CCN)NC(=O)[C@H](CCN)NC(=O)[C@H](CC(C)C)NC(=O)[C@@H](Cc2ccccc2)NC(=O)[C@H](CCN)NC1=O)[C@@H](C)O [polymyxin B, Polymyxin B] (X1-[Dab]T[Dab][Dab][Dab][dF]L[Dab][Dab]T; lactam 4-C) | – | 13.52 | 6.22 | 11.92 | 20.5 |
